The text below walks through data of ChEMBL document CHEMBL1201862, “PubChem BioAssay data set” (2004).

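1) Cells in 96-well plates. 2) Compound, 48 h, 5 concentrations. 3) Linear interpolation between surrounding doses. 4) Unreached endpoint = highest concentration. Here, GI50 denotes the concentration required for 50% inhibition of growth.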 The source made the active and inactive calls. Rule as the data show it: active = GI50 up to about 1.1 µM and inactive = higher. Some results are limits rather than exact numbers.

Holding throughout (test): NCI tumour cell line growth inhibition, 48 h
For assay [1], the system named is SK-MEL-2.
Assay [2] relates to NCI-H226.
Assay [3] concerns ACHN.
The subject of assay [4] is HCT-15.
The test system of assay [5] is SW-620.
Assay [6] deals with HCT-116.
Assay [7] has as its system PC-3.
In assay [8] the test system is CAKI-1.
The subject of assay [9] is RXF 393.
In assay [10] the test system is 786-0.
The test system of assay [11] is T47D.
In assay [12] the test system is A498.
Assay [13] has as its system MDA-N.
For assay [14], the system named is SK-MEL-5.
For assay [15], the system named is MOLT-4.
The test system of assay [16] is HT-29.
Assay [17] concerns OVCAR-8.
Assay [18] concerns NCI-H460.
For assay [19], the system named is HL-60.

As for `Nc1nc2c(ncn2CC2CCC(CO)C2)c(=O)[nH]1` (stereo not given), the GI50 in assay [1] is > 100 µM (inactive); in assay [2], > 100 µM (inactive); in assay [3], > 100 µM (inactive); in assay [4], greater than 100 µM; in assay [5] it was > 100 µM (inactive); in assay [6] it was > 100 µM (inactive). The GI50 in assay [7], in assay [8], in assay [9], in assay [10], in [11] and in assay [12] was > 100 µM (inactive) throughout. Further, the GI50 in assay [13] and in assay [14] was > 100 µM (inactive) throughout.

With `COC(=O)c1cc2c(cc1O)[C@@H](NC(C)=O)CCc1cc(OC)c(OC)c(OC)c1-2`, the GI50 in [15] was 0.0796 µM (active); in [1] it was 0.084 µM (active); in assay [2], 0.023 µM (active); in assay [16], 0.044 µM (active); in assay [3], 0.111 µM (active); in [4], 0.0461 µM. Besides, the GI50 was 0.108 µM (active) in assay [5]; 0.0274 µM (active) in [6]; 0.0509 µM (active) in assay [7]; 0.0993 µM (active) in assay [8]; 0.0577 µM (active) in assay [17]; 0.0328 µM (active) in assay [10]. Further, the GI50 in assay [18] is 0.0528 µM (active); in [11], > 10 µM (inactive); in [12] it was 0.0568 µM (active); in assay [13], 0.0277 µM (active); in [14], 0.0235 µM (active).

As for `O=NN1C(c2ccccc2)CC(=NO)CC1c1ccccc1` (stereo not given), the GI50 in assay [15] was 46.3 µM (inactive); in [1], 6.65 µM (inactive); in assay [2], > 100 µM (inactive); in assay [16] it was 20.5 µM (inactive); in assay [3], > 100 µM (inactive); in assay [19], 74.5 µM (inactive). Further, the GI50 in assay [4] was greater than 100 µM; in assay [5], > 100 µM (inactive); in assay [6], 71.1 µM (inactive); in [7], 70.3 µM (inactive); in [8], 68.4 µM (inactive); in assay [17], > 100 µM (inactive). The GI50 in [9], in assay [10], in assay [18], in assay [11], in assay [13] and in assay [14] was > 100 µM (inactive) throughout.

Regarding `CCOC(=O)C1=C(C)N(c2ccc(Cl)cc2)C2(O)C=CC(O)=C3C(=O)c4ccccc4C(=O)C312` (stereo not given), the GI50 was 2.43 µM (inactive) in [15]; 4.32 µM (inactive) in assay [1]; 5 µM (inactive) in assay [3]; 2.37 µM (inactive) in assay [19]; 2.12 µM in [4]; 4.08 µM (inactive) in assay [5]. Moreover, the GI50 in assay [6] is 3.2 µM (inactive); in [7] it was 3.34 µM (inactive); in assay [8] it was 1.96 µM (inactive); in assay [17] it was 5.11 µM (inactive); in [10], 2.12 µM (inactive); in assay [18], 5.38 µM (inactive). The GI50 is 3.45 µM (inactive) in [11], 15.2 µM (inactive) in assay [12], 4.7 µM (inactive) in assay [13] and 7.96 µM (inactive) in assay [14].

`CCOC(=O)/C(=C\c1ccc(N(C)C)cc1)S(=O)(=O)C(F)(F)C(F)(F)C(F)(F)C(F)(F)F`: the GI50 in assay [15], in [1], in assay [2], in assay [16], in assay [3] and in assay [19] was > 100 µM (inactive) in each case. In addition, the GI50 is greater than 100 µM in assay [4]; > 100 µM (inactive) in [5]; > 100 µM (inactive) in assay [6]; > 100 µM (inactive) in [7]; > 100 µM (inactive) in assay [8]; > 100 µM (inactive) in assay [17]. Moreover, the GI50 in [10], in [18], in [11], in assay [12], in assay [13] and in assay [14] was > 100 µM (inactive) throughout.

Consider `CCc1nn(S(=O)(=O)c2ccc(C)cc2)c2c1CS(=O)(=O)CC2`, for which the GI50 was > 100 µM (inactive) in assay [15]; > 100 µM (inactive) in assay [1]; > 100 µM (inactive) in [16]; > 100 µM (inactive) in assay [3]; greater than 100 µM in assay [4]; > 100 µM (inactive) in assay [5]. In addition, the GI50 is > 100 µM (inactive) in assay [6]; > 100 µM (inactive) in assay [7]; > 100 µM (inactive) in assay [8]; 34.9 µM (inactive) in assay [17]; > 100 µM (inactive) in assay [9]; > 100 µM (inactive) in assay [10]. Besides, the GI50 in assay [18], in assay [11], in [12], in assay [13] and in assay [14] was > 100 µM (inactive) throughout.

In the case of `[N-]=[N+]=NC1=C(c2ccccn2)C(=O)c2cccc3cccc1c23`, the GI50 was 1.77 µM (inactive) in [15]; 43.5 µM (inactive) in assay [1]; 21.1 µM (inactive) in assay [16]; 15.7 µM (inactive) in assay [3]; 20.7 µM (inactive) in [19]; 29 µM in assay [4]. The GI50 was 22.9 µM (inactive) in [5]; 8.63 µM (inactive) in assay [6]; 39.3 µM (inactive) in assay [7]; 26.7 µM (inactive) in [8]; 37.2 µM (inactive) in assay [9]; 25.2 µM (inactive) in assay [10]. The GI50 in [18] is 12 µM (inactive); in [11] it was > 100 µM (inactive); in assay [12], 5.48 µM (inactive); in [13], 53.8 µM (inactive); in [14] it was 6.84 µM (inactive).

Turning to `C[C@H](CO)C1=CC(C#C[Si](C)(C)C)N(C(=O)Oc2ccccc2)c2ccccc21` (stereo not given in full), the GI50 in assay [15] was 9.12 µM (inactive); in assay [1], 13.4 µM (inactive); in assay [2], 15.7 µM (inactive); in assay [16], 4.92 µM (inactive); in [3], 13.8 µM (inactive); in [19], 10.4 µM (inactive). For the same molecule, the GI50 is 3.06 µM in [4]; 12.4 µM (inactive) in [5]; 10.8 µM (inactive) in [6]; 10.2 µM (inactive) in [7]; 14.1 µM (inactive) in assay [8]; 17.7 µM (inactive) in assay [17]. For the same molecule, the GI50 in [9] was 10.2 µM (inactive); in assay [10] it was 14.2 µM (inactive); in [18], 9.25 µM (inactive); in assay [11] it was 15.9 µM (inactive); in assay [13], 3.58 µM (inactive); in [14], 12.7 µM (inactive).

As for `CNC(=O)N(CCC#N)CCCN(C(=O)NC)c1ccccc1`, the GI50 in assay [15], in assay [1], in [2], in assay [16], in [3] and in [19] was > 100 µM (inactive) throughout. In addition, the GI50 in [4] is greater than 100 µM; in assay [5] it was > 100 µM (inactive); in assay [6] it was > 100 µM (inactive); in assay [7] it was > 100 µM (inactive); in assay [8], > 100 µM (inactive); in assay [17] it was > 100 µM (inactive). For the same molecule, the GI50 in assay [9], in assay [10], in assay [18], in [11], in assay [13] and in [14] was > 100 µM (inactive) in each case.

Consider `COc1cc(NS(C)(=O)=O)ccc1N1Cc2c[nH]c3ccc4nccc1c4c23`, for which the GI50 in [15] is 22.3 µM (inactive); in assay [1] it was 21.6 µM (inactive); in assay [2], 29 µM (inactive); in assay [16], 30.8 µM (inactive); in assay [3] it was > 100 µM (inactive); in [19] it was 23.6 µM (inactive). In addition, the GI50 in [4] is greater than 100 µM; in assay [5], 32.1 µM (inactive); in assay [6], 26.6 µM (inactive); in assay [7], 29.6 µM (inactive); in [8] it was > 100 µM (inactive); in [17] it was 35.1 µM (inactive). In addition, the GI50 in assay [10] is 30.8 µM (inactive); in [18] it was 18.5 µM (inactive); in assay [11], 25.5 µM (inactive); in [12], 38.5 µM (inactive); in [13], 28.7 µM (inactive); in assay [14] it was 23.4 µM (inactive).

Take `Cc1cc(C)nc(NS(=O)(=O)c2ccc(NC(=O)c3ccc4nc5ccccc5c(Nc5ccc(S(=O)(=O)N=C(N)N)cc5)c4c3)cc2)n1`: the GI50 in assay [15], in assay [1], in assay [2], in assay [16], in assay [3] and in assay [19] was > 100 µM (inactive) each time. In addition, the GI50 was greater than 100 µM in assay [4]; > 100 µM (inactive) in [5]; > 100 µM (inactive) in assay [6]; > 100 µM (inactive) in [7]; > 100 µM (inactive) in assay [8]; > 100 µM (inactive) in assay [17]. Moreover, the GI50 in assay [9], in assay [10], in [18], in assay [11], in [13] and in assay [14] was > 100 µM (inactive) each time.

As to `COC(=O)[C@H](Cc1ccccc1)NC(=O)N(CCC#N)CCN(C(=O)N[C@@H](Cc1ccccc1)C(=O)OC)c1ccccc1`, the GI50 is 16.6 µM (inactive) in assay [15]; 18.5 µM (inactive) in assay [1]; 30 µM (inactive) in assay [2]; 18.9 µM (inactive) in assay [3]; 38.5 µM in assay [4]; 35.1 µM (inactive) in assay [5]. For the same molecule, the GI50 in assay [6] was 28.1 µM (inactive); in [7], 32.1 µM (inactive); in [8] it was 20 µM (inactive); in assay [17] it was 37.8 µM (inactive); in [9], 18.2 µM (inactive); in assay [10], 9.2 µM (inactive). In addition, the GI50 in [11] is 20.2 µM (inactive); in assay [12] it was 23 µM (inactive); in assay [13] it was 17.5 µM (inactive); in assay [14] it was 22.9 µM (inactive).
